How the values were obtained:
Assay in all cases: relative viability (nuclei count vs DMSO), 5 days (fraction); higher = more cells survive
Linsitinib + Phenformin = compound: C[C@]1(O)C[C@@H](c2nc(-c3ccc4ccc(-c5ccccc5)nc4c3)c3c(N)nccn32)C1 [Linsitinib] + N=C(N)NC(=N)NCCc1ccccc1 [Phenformin] (partner 250 µM)
Method in brief: (§1)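 Relative viability is defined as nuclei in treated wells over nuclei in vehicle wells. Duplicate plates were run and medians reported. Lung cancer cell lines in 1536-well plates were dosed by pin tool one day after seeding, with one drug or with a fixed anchor-drug dose plus five library-drug doses (not always all listed) in √10 steps, and nuclei were counted after 5 days.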

Linsitinib + AZD7762 = compound: C[C@]1(O)C[C@@H](c2nc(-c3ccc4ccc(-c5ccccc5)nc4c3)c3c(N)nccn32)C1 [Linsitinib] + NC(=O)Nc1cc(-c2cccc(F)c2)sc1C(=O)N[C@H]1CCCNC1 [AZD7762] (partner 0.2 µM)
Method in brief: as §1

Ispinesib + Lapatinib = compound: Cc1ccc(C(=O)N(CCCN)[C@@H](c2nc3cc(Cl)ccc3c(=O)n2Cc2ccccc2)C(C)C)cc1 [Ispinesib] + CS(=O)(=O)CCNCc1ccc(-c2ccc3ncnc(Nc4ccc(OCc5cccc(F)c5)c(Cl)c4)c3c2)o1 [Lapatinib] (partner 2 µM)
Method in brief: as §1

Ispinesib + Pemetrexed = compound: Cc1ccc(C(=O)N(CCCN)[C@@H](c2nc3cc(Cl)ccc3c(=O)n2Cc2ccccc2)C(C)C)cc1 [Ispinesib] + Nc1nc2[nH]cc(CCc3ccc(C(=O)N[C@@H](CCC(=O)O)C(=O)O)cc3)c2c(=O)[nH]1 [Pemetrexed] (partner 0.2 µM)
Method in brief: as §1

## NCI-H1651
Linsitinib + Phenformin; first compound 0.01 µM
  relative viability: 0.324
Linsitinib + Phenformin; first compound 0.03162 µM
  relative viability: 0.344
Linsitinib + Phenformin; first compound 0.1 µM
  relative viability: 0.304
Linsitinib + Phenformin; first compound 0.3162 µM
  relative viability: 0.272
Linsitinib + Phenformin; first compound 1 µM
  relative viability: 0.311
Linsitinib + AZD7762; first compound 0.01 µM
  relative viability: 0.221
Linsitinib + AZD7762; first compound 0.03162 µM
  relative viability: 0.467
Linsitinib + AZD7762; first compound 0.1 µM
  relative viability: 0.429
Linsitinib + AZD7762; first compound 0.3162 µM
  relative viability: 0.525
Linsitinib + AZD7762; first compound 1 µM
  relative viability: 0.447
Ispinesib + Lapatinib; first compound 0.001 µM
  relative viability: 0.974
Ispinesib + Lapatinib; first compound 0.003162 µM
  relative viability: 1.02
Ispinesib + Lapatinib; first compound 0.01 µM
  relative viability: 1.04
Ispinesib + Lapatinib; first compound 0.03162 µM
  relative viability: 0.234
Ispinesib + Lapatinib; first compound 0.1 µM
  relative viability: 0.187
Ispinesib + Pemetrexed; first compound 0.001 µM
  relative viability: 0.616
Ispinesib + Pemetrexed; first compound 0.003162 µM
  relative viability: 0.783
Ispinesib + Pemetrexed; first compound 0.01 µM
  relative viability: 0.57
Ispinesib + Pemetrexed; first compound 0.03162 µM
  relative viability: 0.63
Ispinesib + Pemetrexed; first compound 0.1 µM
  relative viability: 0.418

## HCC-78
Linsitinib + Phenformin; first compound 0.01 µM
  relative viability: 0.551
Linsitinib + Phenformin; first compound 0.03162 µM
  relative viability: 0.717
Linsitinib + Phenformin; first compound 0.1 µM
  relative viability: 0.565
Linsitinib + Phenformin; first compound 0.3162 µM
  relative viability: 0.701
Linsitinib + Phenformin; first compound 1 µM
  relative viability: 0.621
Linsitinib + AZD7762; first compound 0.03162 µM
  relative viability: 0.56
Linsitinib + AZD7762; first compound 0.1 µM
  relative viability: 0.415
Linsitinib + AZD7762; first compound 0.3162 µM
  relative viability: 0.666
Linsitinib + AZD7762; first compound 1 µM
  relative viability: 0.472
Ispinesib + Lapatinib; first compound 0.001 µM
  relative viability: 0.762
Ispinesib + Lapatinib; first compound 0.003162 µM
  relative viability: 1.47
Ispinesib + Lapatinib; first compound 0.01 µM
  relative viability: 0.811
Ispinesib + Lapatinib; first compound 0.1 µM
  relative viability: 0.308
Ispinesib + Pemetrexed; first compound 0.001 µM
  relative viability: 0.916
Ispinesib + Pemetrexed; first compound 0.003162 µM
  relative viability: 0.931
Ispinesib + Pemetrexed; first compound 0.01 µM
  relative viability: 0.937
Ispinesib + Pemetrexed; first compound 0.03162 µM
  relative viability: 0.932
Ispinesib + Pemetrexed; first compound 0.1 µM
  relative viability: 0.617

## NCI-H23
Linsitinib + Phenformin; first compound 0.01 µM
  relative viability: 0.821
Linsitinib + Phenformin; first compound 0.03162 µM
  relative viability: 0.863
Linsitinib + Phenformin; first compound 0.1 µM
  relative viability: 0.764
Linsitinib + Phenformin; first compound 0.3162 µM
  relative viability: 0.53
Linsitinib + Phenformin; first compound 1 µM
  relative viability: 0.503
Linsitinib + AZD7762; first compound 0.01 µM
  relative viability: 0.239
Linsitinib + AZD7762; first compound 0.03162 µM
  relative viability: 0.205
Linsitinib + AZD7762; first compound 0.1 µM
  relative viability: 0.215
Linsitinib + AZD7762; first compound 0.3162 µM
  relative viability: 0.254
Linsitinib + AZD7762; first compound 1 µM
  relative viability: 0.23
Ispinesib + Lapatinib; first compound 0.001 µM
  relative viability: 0.915
Ispinesib + Lapatinib; first compound 0.003162 µM
  relative viability: 1.16
Ispinesib + Lapatinib; first compound 0.01 µM
  relative viability: 1.04
Ispinesib + Lapatinib; first compound 0.03162 µM
  relative viability: 0.245
Ispinesib + Lapatinib; first compound 0.1 µM
  relative viability: 0.293
Ispinesib + Pemetrexed; first compound 0.001 µM
  relative viability: 0.68
Ispinesib + Pemetrexed; first compound 0.003162 µM
  relative viability: 0.785
Ispinesib + Pemetrexed; first compound 0.01 µM
  relative viability: 0.726
Ispinesib + Pemetrexed; first compound 0.03162 µM
  relative viability: 0.522
Ispinesib + Pemetrexed; first compound 0.1 µM
  relative viability: 0.207

## LOU-NH91
Linsitinib + Phenformin; first compound 0.01 µM
  relative viability: 0.739
Linsitinib + Phenformin; first compound 0.03162 µM
  relative viability: 0.714
Linsitinib + Phenformin; first compound 0.1 µM
  relative viability: 0.722
Linsitinib + Phenformin; first compound 0.3162 µM
  relative viability: 0.651
Linsitinib + Phenformin; first compound 1 µM
  relative viability: 0.632
Linsitinib + AZD7762; first compound 0.01 µM
  relative viability: 0.763
Linsitinib + AZD7762; first compound 0.03162 µM
  relative viability: 0.701
Linsitinib + AZD7762; first compound 0.1 µM
  relative viability: 0.742
Linsitinib + AZD7762; first compound 0.3162 µM
  relative viability: 0.693
Linsitinib + AZD7762; first compound 1 µM
  relative viability: 0.58
Ispinesib + Lapatinib; first compound 0.001 µM
  relative viability: 0.785
Ispinesib + Lapatinib; first compound 0.003162 µM
  relative viability: 0.799
Ispinesib + Lapatinib; first compound 0.01 µM
  relative viability: 0.779
Ispinesib + Lapatinib; first compound 0.03162 µM
  relative viability: 0.447
Ispinesib + Lapatinib; first compound 0.1 µM
  relative viability: 0.271
Ispinesib + Pemetrexed; first compound 0.001 µM
  relative viability: 0.387
Ispinesib + Pemetrexed; first compound 0.003162 µM
  relative viability: 0.428
Ispinesib + Pemetrexed; first compound 0.01 µM
  relative viability: 0.384
Ispinesib + Pemetrexed; first compound 0.03162 µM
  relative viability: 0.374
Ispinesib + Pemetrexed; first compound 0.1 µM
  relative viability: 0.323
